Biological target: T1, TGF-beta receptor type-1 (Homo sapiens, UniProt P36897)
T1 sequence (P36897 whole entry): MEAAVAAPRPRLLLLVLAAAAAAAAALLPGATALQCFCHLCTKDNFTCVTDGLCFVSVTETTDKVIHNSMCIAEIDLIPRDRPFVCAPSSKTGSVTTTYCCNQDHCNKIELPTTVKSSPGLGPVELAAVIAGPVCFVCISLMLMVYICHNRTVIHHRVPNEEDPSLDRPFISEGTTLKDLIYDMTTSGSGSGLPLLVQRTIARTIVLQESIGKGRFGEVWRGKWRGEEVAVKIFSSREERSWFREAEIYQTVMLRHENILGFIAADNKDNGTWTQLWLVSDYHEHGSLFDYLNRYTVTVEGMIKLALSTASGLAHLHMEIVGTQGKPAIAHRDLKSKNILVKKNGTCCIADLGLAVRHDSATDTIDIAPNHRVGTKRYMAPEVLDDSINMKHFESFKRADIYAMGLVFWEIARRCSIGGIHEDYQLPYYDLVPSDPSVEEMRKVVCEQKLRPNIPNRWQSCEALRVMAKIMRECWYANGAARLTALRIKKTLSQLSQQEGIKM
Assay: ADP-Glo Kinase Assay
Description: The principle of the activity assay was that TGFβR1 phosphorylates the substrate TGFβR1tide, consuming ATP in the process. […] The specific experimental steps were as follows. Compounds were diluted 4-fold in DMSO in a dilution plate, with the final starting concentration of the compounds being 10 μM, across 10 concentration gradient points. The compounds were then further diluted 50-fold into the kinase reaction buffer and incubated on a shaker for 20 minutes. Kinase was formulated with an enzyme reaction buffer. 2 μl kinase was added to each well of the reaction plate. 1 μl of the compound diluted in buffer was added to each well, and then the plate was sealed with a sealing membrane and centrifuged at 1000 g for 30 seconds, leaving it at room temperature for 10 minutes. Solutions of TGFβR1tide and ATP were prepared with the kinase reaction buffer, and 2 μL of the TGFβR1tide/ATP solution was added to the reaction plate. The plate was sealed with a sealing film and centrifuged at 1000 g for 30 seconds. It was allowed to react at room temperature for 60 minutes. Subsequently, 4 μL of ADP-Glo was transferred to a 384-well reaction plate and centrifuged at 1000 rpm/min for 1 minute, followed by incubation at 25° C. for 40 minutes. […] The RLU (Relative Luminescence Unit) signal was read using a BMG microplate reader, which was used to characterize the degree of kinase activity.

Cc1cccc(-c2n[nH]cc2-c2ccnc(-c3nc4c([nH]3)CN(C(=O)N3CCN(C)CC3)C4)c2)n1 [US20250215017, Compound 7]
IC50: 1.1 nM

— BindingDB's records for patent US20250215017 (Medinno Pharmaceutical Technology (Zhuhai) Co., 2025)
